test system: KM12-luc cells; test: Cell proliferation and growth inhibition assay (CCK-8) in KM12-luc; assay type: cell-based; conditions: KM12-Luc, 72 h, KM12-luc cells, treated with test compounds for 72 hrs, CCK-8 viability; read-out: NTRK IC50 in KM12-luc
Summary of the method: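 IC50 values were fitted by sigmoidal dose-response non-linear regression of CCK-8 OD450 absorbance after 1-4 hrs with reagent. Culture media were IMDM for MV-4-11, RPMI 1640 for H1975 and DMEM for KM12-luc, each with 10% FBS at 37 °C, 5% CO2.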

First: CN1CCN(c2ccc(C(=O)Nc3c[nH]c4ccc(Cc5cc(F)cc(F)c5)cc34)c(NC3CCOCC3)c2)CC1 [Compound 505, N-(5-(3,5-difluorobenzyl)-1H-indol-3-yl)-4-(4-methylpiperazin-1-yl)-2-((tetrahydro-2H-pyran-4-yl)amino)benzamide]
Second: CCC(=O)Nc1cccc(Nc2ncc(Cl)c(Nc3ccc(N4CCN(C)CC4)cc3OC)n2)c1 [Compound 161, N-(3-((5-chloro-4-((2-methoxy-4-(4-methylpiperazin-1-yl)phenyl)amino)pyrimidin-2-yl)amino)phenyl)propionamide]
The IC50 of the first is higher: greater than 1000 nM for the first, 146 nM for the second. The second is the more potent here.

CCn1cc(-c2nc(Nc3ccc(N(C)CCN(C)C)c(NC(C)=O)c3)nc3[nH]ccc23)c2cc(F)ccc21 [Compound 246, N-(2-((2-(dimethylamino)ethyl)(methyl)amino)-5-((4-(1-ethyl-5-fluoro-1H-indol-3-yl)-7H-pyrrolo[2,3-d]pyrimidin-2-yl)amino)phenyl)acetamide] and CC(=O)Nc1cc(Nc2nc(-c3cn(C)c4ccccc34)c3c(F)c[nH]c3n2)ccc1N(C)CCN(C)C [Compound 253, N-(2-((2-(dimethylamino)ethyl)(methyl)amino)-5-((5-fluoro-4-(1-methyl-1H-indol-3-yl)-7H-pyrrolo[2,3-d]pyrimidin-2-yl)amino)phenyl)acetamide] are within 1.5-fold of each other in IC50: 69.9 nM for the first, 97.5 nM for the second.

Going from CCN(CCN(C)C)c1c(F)cc(Nc2nc(-c3cn(C)c4ccccc34)c3cc[nH]c3n2)cc1NC(C)=O [Compound 195a, N-(2-((2-(dimethylamino)ethyl)(ethyl)amino)-3-fluoro-5-((4-(1-methyl-1H-indol-3-yl)-7H-pyrrolo[2,3-d]pyrimidin-2-yl)amino)phenyl)acetamide] to CCN(CCN(C)C)c1c(F)cc(Nc2nc(-c3cn(C)c4ccccc34)c3occc3n2)cc1NC(C)=O [Compound 256d, N-(2-((2-(dimethylamino)ethyl)(ethyl)amino)-3-fluoro-5-((4-(1-methyl-1H-indol-3-yl)furo[3,2-d]pyrimidin-2-yl)amino)phenyl)acetamide], the IC50 rises from 153 nM to 1000 nM (6.5-fold). The first is the more potent here.

First: COc1cccc2c1c(-c1nc(Nc3ccc(N(C)CCN(C)C)c(NC(C)=O)c3)ncc1F)cn2C [Compound 271, N-(2-((2-(dimethylamino)ethyl)(methyl)amino)-5-((5-fluoro-4-(4-methoxy-1-methyl-1H-indol-3-yl)pyrimidin-2-yl)amino)phenyl)acetamide]
Second: COc1cnc(Nc2ccc(N(C)CCN(C)C)c(NC(C)=O)c2)nc1-c1cn(C)c2cccc(F)c12 [Compound 277, N-(2-((2-(dimethylamino)ethyl)(methyl)amino)-5-((4-(4-fluoro-1-methyl-1H-indol-3-yl)-5-methoxypyrimidin-2-yl)amino)phenyl)acetamide]
The IC50 of the first is 4-fold higher: 1480 nM for the first, 368 nM for the second. The second is the more potent here.

Compared with CCN(CCN(C)C)c1ccc(Nc2ncc(C(F)(F)F)c(-c3c[nH]c4ccc(F)cc34)n2)cc1N [Compound 324, N^1-(2-(dimethylamino)ethyl)-N^1-ethyl-N^4-(4-(5-fluoro-1H-indol-3-yl)-5-(trifluoromethyl)pyrimidin-2-yl)benzene-1,2,4-triamine], CCC(=O)Nc1cc(Nc2ncc(C(F)(F)F)c(-c3c[nH]c4cc(F)ccc34)n2)ccc1N(CC)CCN(C)C [Compound 330a, N-(2-((2-(dimethylamino)ethyl)(ethyl)amino)-5-((4-(6-fluoro-1H-indol-3-yl)-5-(trifluoromethyl)pyrimidin-2-yl)amino)phenyl)propionamide] is 17-fold higher in IC50: 17.5 nM for the first, 292 nM for the second.

First: COc1cccc2c(-c3nc(Nc4ccc(OCCN(C)C)c(NC(C)=O)c4)ncc3C(F)(F)F)cn(C)c12 [Compound 388, N-(2-(2-(dimethylamino)ethoxy)-5-((4-(7-methoxy-1-methyl-1H-indol-3-yl)-5-(trifluoromethyl)pyrimidin-2-yl)amino)phenyl)acetamide]
Second: CC(=O)Nc1cc(Nc2ncc(C(F)(F)F)c(-c3c[nH]c4ccccc34)n2)ccc1OCCN(C)C [Compound 304, N-(5-((4-(1H-indol-3-yl)-5-(trifluoromethyl)pyrimidin-2-yl)amino)-2-(2-(dimethylamino)ethoxy)phenyl)acetamide]
The IC50 of the first is 1.7-fold lower: 44.8 nM for the first, 75.1 nM for the second. The first is the more potent here.

Compared with CCN(CCN(C)C)c1ccc(Nc2nc(-c3cn(C)c4ccccc34)c3cc[nH]c3n2)cc1F [Compound 208, N^1-(2-(dimethylamino)ethyl)-N^1-ethyl-2-fluoro-N^4-(4-(1-methyl-1H-indol-3-yl)-7H-pyrrolo[2,3-d]pyrimidin-2-yl)benzene-1,4-diamine], CNc1cc(Nc2ncc(F)c(-c3cn(C)c4ccccc34)n2)ccc1N(C)CCN(C)C [Compound 263, N^1-(2-(dimethylamino)ethyl)-N^4-(5-fluoro-4-(1-methyl-1H-indol-3-yl)pyrimidin-2-yl)-N^1,N^2-dimethylbenzene-1,2,4-triamine] is 1.8-fold higher in IC50: 381 nM for the first, 704 nM for the second.

First: CC(=O)Nc1cc(Nc2ncc(F)c(-c3cn(C)c4ccc(C)cc34)n2)ccc1N(C)CCN(C)C [Compound 270, N-(5-((4-(1,5-dimethyl-1H-indol-3-yl)-5-fluoropyrimidin-2-yl)amino)-2-((2-(dimethylamino)ethyl)(methyl)amino)phenyl)acetamide]
Second: CC(=O)Nc1cc(Nc2ncc(F)c(-c3cn(C)c4ccccc34)n2)ccc1N(C)CCN(C)C [Compound 261, N-(2-((2-(dimethylamino)ethyl)(methyl)amino)-5-((5-fluoro-4-(1-methyl-1H-indol-3-yl)pyrimidin-2-yl)amino)phenyl)acetamide]
The IC50 of the first is 3.1-fold higher: 1600 nM for the first, 509 nM for the second.

Compared with CCN(CCN(C)C)c1ccc(Nc2nc(-c3c[nH]c4ccccc34)ncc2C(F)(F)F)cc1NC(C)=O [Compound 300b, N-(5-((2-(1H-indol-3-yl)-5-(trifluoromethyl)pyrimidin-4-yl)amino)-2-((2-(dimethylamino)ethyl)(ethyl)amino)phenyl)acetamide], CCN(CCN(C)C)c1ccc(Nc2ncc(C(F)(F)F)c(-c3cn(C)c4c(F)cccc34)n2)cc1NC(C)=O [Compound 348, N-(2-((2-(dimethylamino)ethyl)(ethyl)amino)-5-((4-(7-fluoro-1-methyl-1H-indol-3-yl)-5-(trifluoromethyl)pyrimidin-2-yl)amino)phenyl)acetamide] is 42-fold lower in IC50: 3680 nM for the first, 87.8 nM for the second.

Cc1nc2cc(Nc3ncc(C(F)(F)F)c(-c4c[nH]c5ccccc45)n3)ccc2n1CCN(C)C [Compound 303b, N^1—N-(4-(1H-indol-3-yl)-5-(trifluoromethyl)pyrimidin-2-yl)-1-(2-(dimethylamino)ethyl)-2-methyl-1H-benzo[d]imidazol-5-amine] and COc1cccc2c(-c3nc(Nc4ccc(N5CC[C@H](N(C)C)C5)c(N)c4)ncc3C(F)(F)F)cn(C)c12 [Compound S-390, (S)-4-(3-(dimethylamino)pyrrolidin-1-yl)-N^1-(4-(7-methoxy-1-methyl-1H-indol-3-yl)-5-(trifluoromethyl)pyrimidin-2-yl)benzene-1,3-diamine] are within 1.5-fold of each other in IC50: 64.3 nM for the first, 44.6 nM for the second.

CCC(=O)Nc1cccc(Nc2ncc(Cl)c(Nc3ccc(C4CCCNC4)cc3OC)n2)c1 (stereo not shown) [Compound 164, N-(3-((5-chloro-4-((2-methoxy-4-(piperidin-3-yl)phenyl)amino)pyrimidin-2-yl)amino)phenyl)propionamide] gave an IC50 of 50.5 nM.

same assay, conditions: KM12-luc cells, treated with test compounds for 72 hrs, CCK-8 viability; read-out: NTRK IC50 in KM12-luc

With CC(=O)Nc1cc(Nc2ncc(F)c(-c3c[nH]c4ccc(C)cc34)n2)ccc1N(C)CCN(C)C [Compound 269, N—N-(2-((2-(dimethylamino)ethyl)(methyl)amino)-5-((5-fluoro-4-(5-methyl-1H-indol-3-yl)pyrimidin-2-yl)amino)phenyl)acetamide] the IC50 was 112 nM.

From US20250136576A1, “Heterocyclic Compounds and Uses Thereof” (ACEA Therapeutics, Inc., priority 2021, published 2025)
